What was measured:
Assay in all cases: relative viability (nuclei count vs DMSO), 5 days (fraction); higher = more cells survive
[1] = compound: O[C@H]1CC[C@H](Nc2ncc3nc(Nc4c(F)cc(F)cc4F)n([C@H]4CCOC4)c3n2)CC1 [Tanzisertib] + Cc1nc(NC(=O)N2CCC[C@H]2C(N)=O)sc1-c1ccnc(C(C)(C)C(F)(F)F)c1 [Alpelisib] (partner 2 µM)
Summary of the method: (§1)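 Cells from lung cancer lines were seeded into 1536-well plates and, one day later, dosed by pin tool. Treatments were either a single drug or a fixed dose of an anchor drug with five library-drug doses (not always all listed) in √10 steps. After 5 days, nuclei were stained in a one-step fixation (final 0.05% Triton X-100, 1% formaldehyde, 1 ug/ml Hoechst) and counted on 4× images, and relative viability is the treated-to-vehicle nuclei ratio, as the median of duplicate plates.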

[2] = compound: O[C@H]1CC[C@H](Nc2ncc3nc(Nc4c(F)cc(F)cc4F)n([C@H]4CCOC4)c3n2)CC1 [Tanzisertib] + COc1cccc2cc(-c3nc([C@H]4CC[C@H](C(=O)O)CC4)n4ncnc(N)c34)[nH]c12 [OSI-027] (partner 0.5 µM)
Summary of the method: as §1

[3] = compound: O[C@H]1CC[C@H](Nc2ncc3nc(Nc4c(F)cc(F)cc4F)n([C@H]4CCOC4)c3n2)CC1 [Tanzisertib] + C[C@@H](Oc1cc(-c2cnn(C3CCNCC3)c2)cnc1N)c1c(Cl)ccc(F)c1Cl [Crizotinib] (partner 1 µM)
Summary of the method: as §1

[4] = compound: O[C@H]1CC[C@H](Nc2ncc3nc(Nc4c(F)cc(F)cc4F)n([C@H]4CCOC4)c3n2)CC1 [Tanzisertib] + COc1cc2c(Oc3ccc(NC(=O)C4(C(=O)Nc5ccc(F)cc5)CC4)cc3F)ccnc2cc1OCCCN1CCOCC1 [Foretinib] (partner 0.25 µM)
Summary of the method: as §1

With NCI-H1651 the relative viability ([1]; first compound 0.08 µM) was 1.17, the relative viability ([1]; first compound 0.253 µM) was 0.934 and the relative viability ([1]; first compound 0.8 µM) was 1.01. It also gave a relative viability ([1]; first compound 2.53 µM) of 0.988, a relative viability ([1]; first compound 8 µM) of 0.817 and a relative viability ([2]; first compound 0.08 µM) of 0.712. It also gave a relative viability ([2]; first compound 0.253 µM) of 0.58, a relative viability ([2]; first compound 0.8 µM) of 0.833 and a relative viability ([2]; first compound 2.53 µM) of 0.614. For the same cell line, the relative viability ([2]; first compound 8 µM) was 0.678, the relative viability ([3]; first compound 0.08 µM) was 0.851 and the relative viability ([3]; first compound 0.253 µM) was 0.817. It also gave a relative viability ([3]; first compound 0.8 µM) of 0.882, a relative viability ([3]; first compound 2.53 µM) of 0.833 and a relative viability ([3]; first compound 8 µM) of 0.921. The relative viability ([4]; first compound 0.08 µM) was 0.875, the relative viability ([4]; first compound 0.253 µM) was 0.951 and the relative viability ([4]; first compound 0.8 µM) was 0.794. For the same cell line, the relative viability ([4]; first compound 2.53 µM) was 0.996 and the relative viability ([4]; first compound 8 µM) was 0.539.
In the case of NCI-H1666, the relative viability ([1]; first compound 0.08 µM) is reported as 0.935, the relative viability ([1]; first compound 0.253 µM) is reported as 1.01 and the relative viability ([1]; first compound 0.8 µM) is reported as 1.06. For the same cell line, the relative viability ([1]; first compound 2.53 µM) was 1.1, the relative viability ([1]; first compound 8 µM) was 1.01 and the relative viability ([2]; first compound 0.08 µM) was 0.877. The relative viability ([2]; first compound 0.253 µM) was 0.869, the relative viability ([2]; first compound 0.8 µM) was 0.944 and the relative viability ([2]; first compound 2.53 µM) was 0.834. For the same cell line, the relative viability ([2]; first compound 8 µM) was 0.786, the relative viability ([3]; first compound 0.08 µM) was 0.902 and the relative viability ([3]; first compound 0.253 µM) was 0.934. It also gave a relative viability ([3]; first compound 0.8 µM) of 1.09, a relative viability ([3]; first compound 2.53 µM) of 1.03 and a relative viability ([3]; first compound 8 µM) of 1.09. The relative viability ([4]; first compound 0.08 µM) was 0.957, the relative viability ([4]; first compound 0.253 µM) was 0.96 and the relative viability ([4]; first compound 0.8 µM) was 0.978. It also gave a relative viability ([4]; first compound 2.53 µM) of 1.01 and a relative viability ([4]; first compound 8 µM) of 0.976.
Cell Line NCI-H1734 has a relative viability ([1]; first compound 0.08 µM) of 0.724, a relative viability ([1]; first compound 0.253 µM) of 0.704 and a relative viability ([1]; first compound 0.8 µM) of 0.673. It also gave a relative viability ([1]; first compound 2.53 µM) of 0.702, a relative viability ([1]; first compound 8 µM) of 0.642 and a relative viability ([2]; first compound 0.08 µM) of 0.758. For the same cell line, the relative viability ([2]; first compound 0.253 µM) was 0.581, the relative viability ([2]; first compound 0.8 µM) was 0.588 and the relative viability ([2]; first compound 2.53 µM) was 0.723. It also gave a relative viability ([2]; first compound 8 µM) of 0.586, a relative viability ([3]; first compound 0.08 µM) of 0.743 and a relative viability ([3]; first compound 0.253 µM) of 0.658. It also gave a relative viability ([3]; first compound 0.8 µM) of 0.72, a relative viability ([3]; first compound 2.53 µM) of 0.738 and a relative viability ([3]; first compound 8 µM) of 0.599. The relative viability ([4]; first compound 0.08 µM) was 0.923, the relative viability ([4]; first compound 0.253 µM) was 0.781 and the relative viability ([4]; first compound 0.8 µM) was 0.845. For the same cell line, the relative viability ([4]; first compound 2.53 µM) was 0.87 and the relative viability ([4]; first compound 8 µM) was 0.789.
NCI-H1755 gave a relative viability ([1]; first compound 0.08 µM) of 1.05, a relative viability ([1]; first compound 0.253 µM) of 0.897 and a relative viability ([1]; first compound 0.8 µM) of 0.918. It also gave a relative viability ([1]; first compound 2.53 µM) of 0.84, a relative viability ([1]; first compound 8 µM) of 0.852 and a relative viability ([2]; first compound 0.08 µM) of 0.747. It also gave a relative viability ([2]; first compound 0.253 µM) of 0.77, a relative viability ([2]; first compound 0.8 µM) of 0.676 and a relative viability ([2]; first compound 2.53 µM) of 0.706. It also gave a relative viability ([2]; first compound 8 µM) of 0.517, a relative viability ([3]; first compound 0.08 µM) of 0.85 and a relative viability ([3]; first compound 0.253 µM) of 0.821. The relative viability ([3]; first compound 0.8 µM) was 0.863, the relative viability ([3]; first compound 2.53 µM) was 0.839 and the relative viability ([3]; first compound 8 µM) was 0.777. The relative viability ([4]; first compound 0.08 µM) was 0.913, the relative viability ([4]; first compound 0.253 µM) was 0.931 and the relative viability ([4]; first compound 0.8 µM) was 0.882. The relative viability ([4]; first compound 2.53 µM) was 0.891 and the relative viability ([4]; first compound 8 µM) was 0.878.
With NCI-H1915 the relative viability ([1]; first compound 0.08 µM) was 1.15, the relative viability ([1]; first compound 0.253 µM) was 1.05 and the relative viability ([1]; first compound 0.8 µM) was 1.06. For the same cell line, the relative viability ([1]; first compound 2.53 µM) was 1.04, the relative viability ([1]; first compound 8 µM) was 1.04 and the relative viability ([2]; first compound 0.08 µM) was 0.695. It also gave a relative viability ([2]; first compound 0.253 µM) of 0.633, a relative viability ([2]; first compound 0.8 µM) of 0.615 and a relative viability ([2]; first compound 2.53 µM) of 0.669. It also gave a relative viability ([2]; first compound 8 µM) of 0.34, a relative viability ([3]; first compound 0.08 µM) of 0.929 and a relative viability ([3]; first compound 0.253 µM) of 0.91. For the same cell line, the relative viability ([3]; first compound 0.8 µM) was 0.862, the relative viability ([3]; first compound 2.53 µM) was 0.904 and the relative viability ([3]; first compound 8 µM) was 0.856. The relative viability ([4]; first compound 0.08 µM) was 1.12, the relative viability ([4]; first compound 0.253 µM) was 1.1 and the relative viability ([4]; first compound 0.8 µM) was 1.11. For the same cell line, the relative viability ([4]; first compound 2.53 µM) was 1.11 and the relative viability ([4]; first compound 8 µM) was 1.16.
NCI-H1944 gave a relative viability ([1]; first compound 0.08 µM) of 0.876, a relative viability ([1]; first compound 0.253 µM) of 0.822 and a relative viability ([1]; first compound 0.8 µM) of 0.822. It also gave a relative viability ([1]; first compound 2.53 µM) of 0.789, a relative viability ([1]; first compound 8 µM) of 0.758 and a relative viability ([2]; first compound 0.08 µM) of 0.4. It also gave a relative viability ([2]; first compound 0.253 µM) of 0.393, a relative viability ([2]; first compound 0.8 µM) of 0.426 and a relative viability ([2]; first compound 2.53 µM) of 0.389. For the same cell line, the relative viability ([2]; first compound 8 µM) was 0.338, the relative viability ([3]; first compound 0.08 µM) was 1.23 and the relative viability ([3]; first compound 0.253 µM) was 1.03. For the same cell line, the relative viability ([3]; first compound 0.8 µM) was 1.11, the relative viability ([3]; first compound 2.53 µM) was 1.14 and the relative viability ([3]; first compound 8 µM) was 0.949. For the same cell line, the relative viability ([4]; first compound 0.08 µM) was 0.957, the relative viability ([4]; first compound 0.253 µM) was 0.936 and the relative viability ([4]; first compound 0.8 µM) was 0.855. It also gave a relative viability ([4]; first compound 2.53 µM) of 0.928 and a relative viability ([4]; first compound 8 µM) of 0.822.
Work on NCI-H1975 yielded a relative viability ([1]; first compound 0.08 µM) of 0.676, a relative viability ([1]; first compound 0.253 µM) of 0.715 and a relative viability ([1]; first compound 0.8 µM) of 0.719. For the same cell line, the relative viability ([1]; first compound 2.53 µM) was 0.653, the relative viability ([1]; first compound 8 µM) was 0.585 and the relative viability ([2]; first compound 0.08 µM) was 0.926. For the same cell line, the relative viability ([2]; first compound 0.253 µM) was 0.773, the relative viability ([2]; first compound 0.8 µM) was 0.671 and the relative viability ([2]; first compound 2.53 µM) was 0.673. It also gave a relative viability ([2]; first compound 8 µM) of 0.587, a relative viability ([3]; first compound 0.08 µM) of 0.892 and a relative viability ([3]; first compound 0.253 µM) of 1. The relative viability ([3]; first compound 0.8 µM) was 0.954, the relative viability ([3]; first compound 2.53 µM) was 0.935 and the relative viability ([3]; first compound 8 µM) was 0.915. The relative viability ([4]; first compound 0.08 µM) was 0.968, the relative viability ([4]; first compound 0.253 µM) was 0.968 and the relative viability ([4]; first compound 0.8 µM) was 1.03. It also gave a relative viability ([4]; first compound 2.53 µM) of 0.946 and a relative viability ([4]; first compound 8 µM) of 0.841.
Cell Line NCI-H1993 has a relative viability ([1]; first compound 0.08 µM) of 0.661, a relative viability ([1]; first compound 0.253 µM) of 0.663 and a relative viability ([1]; first compound 0.8 µM) of 0.524. The relative viability ([1]; first compound 2.53 µM) was 0.693, the relative viability ([1]; first compound 8 µM) was 0.699 and the relative viability ([2]; first compound 0.08 µM) was 0.604. It also gave a relative viability ([2]; first compound 0.253 µM) of 0.578, a relative viability ([2]; first compound 0.8 µM) of 0.485 and a relative viability ([2]; first compound 2.53 µM) of 0.498. For the same cell line, the relative viability ([2]; first compound 8 µM) was 0.59, the relative viability ([3]; first compound 0.08 µM) was 0.855 and the relative viability ([3]; first compound 0.253 µM) was 0.886. For the same cell line, the relative viability ([3]; first compound 0.8 µM) was 0.891, the relative viability ([3]; first compound 2.53 µM) was 0.789 and the relative viability ([3]; first compound 8 µM) was 0.789. It also gave a relative viability ([4]; first compound 0.08 µM) of 0.823, a relative viability ([4]; first compound 0.253 µM) of 0.841 and a relative viability ([4]; first compound 0.8 µM) of 0.844. For the same cell line, the relative viability ([4]; first compound 2.53 µM) was 0.786 and the relative viability ([4]; first compound 8 µM) was 0.73.

From the supplement of paper PMC10307832
